Values quoted from earlier work in US20060110448A1, “Combination of a macrolide and a local anesthetic for the treatment of dermatological diseases” (priority 2003, published 2006).

System: rat model of allogeneic kidney transplantation
Conditions: oral administration, suppression of systemic immune response

## C=CC[C@@H]1/C=C(\C)C[C@H](C)C[C@H](OC)[C@H]2O[C@@](O)(C(=O)C(=O)N3CCCC[C@H]3C(=O)O[C@H](/C(C)=C/[C@@H]3CC[C@@H](O)[C@H](OC)C3)[C@H](C)[C@@H](O)CC1=O)[C@H](C)C[C@@H]2OC [tacrolimus]
  minimum effective dose (MED): 14 mg/kg
